Assay: gradient 5% acetonitrile 3 min, to 50% in 2 min, to 85% in 15 min, held 3 min, 100 µL/min
Settings: column: Zorbax Extend-C18 2.1 x 50 mm; eluents: water / acetonitrile, 0.1% formic acid
In short: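 Data were gathered over 3 months by HPLC coupled to a quadrupole time-of-flight mass spectrometer, operated in positive and negative ionization mode. Mixtures of ~100 pure standards ran on a Zorbax Extend-C18 column (2.1 × 50 mm, 1.8 μm) at 100 μL/min, with water and acetonitrile each containing 0.1% formic acid and dead and dwell volumes of 40 μL and 900 μL. Retention time was read from adduct peaks picked by computer and checked manually.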

| RP-LC retention time [s] | Structure (SMILES) |
| --- | --- |
| 579 | COc1ccc(C(CC(=O)NCCN2CCN(C)CC2)N2Cc3ccccc3C2=O)cc1OC (configuration not stated) |
| 888 | CC(Oc1cccc(Cl)c1)C(=O)N1CCN(c2cc(-c3cccs3)[nH]n2)CC1 (configuration not stated) |
| 583 | CCNC(=O)c1c(-c2cccnc2)noc1C |
| 701 | CCOC(=O)c1ccccc1NC(=O)Cn1cnc2nc(N3CCC(C(=O)NC)CC3)sc2c1=O |
| 949 | COc1ccc(-c2noc(CN3N=NC4C(=O)N(c5ccc6c(c5)CCC6)C(=O)C43)n2)cc1OC (configuration not stated) |
| 702 | COCCCNC(=O)Cn1cccc(-c2nc(-c3ccc(F)cc3)no2)c1=O |
| 859 | CC1CC(=O)N(CC(=O)Nc2ccc3c(c2)OCCO3)c2ccccc2S1 (configuration not stated) |
| 854 | CCOc1ccccc1NC(=O)N1CCCC1c1cc(C)no1 (configuration not stated) |
| 868 | Cc1ccc(-c2cc(C(F)(F)F)on2)cc1S(=O)(=O)N1CCN(c2ccccn2)CC1 |
| 715 | CCC(C)C(NC(=O)c1ccccn1)C(=O)Nc1nc2ccccc2[nH]1 (configuration not stated) |
| 720 | O=C(NCc1ccccc1)C1CCc2nc(N3CCCCC3)ncc2C1 (configuration not stated) |
| 1000 | COc1ccccc1-c1nc(Cc2noc(Cc3ccc(F)cc3)n2)c(C)o1 |
| 1040 | CCOc1cc(-c2noc(-c3ncn4c3COC(c3ccc(F)cc3)C4)n2)ccc1OC (configuration not stated) |
| 810 | COc1cccc(NC(=O)C2CCN(S(C)(=O)=O)c3ccccc3O2)c1 (configuration not stated) |
| 611 | CCOC(=O)C1=C(CN2CCC(C)CC2)NC(=O)NC1c1cccs1 (configuration not stated) |
| 993 | O=c1n(Cc2cccc(C(F)(F)F)c2)nc2c(S(=O)(=O)N3CCCCC3)cccn12 |
| 718 | CCOc1cc(=O)n2c(c1C(=O)Nc1cc(OC)cc(OC)c1)CCCC2 |
| 760 | O=C(Cc1nnc(-c2ccc3ncccc3c2)o1)Nc1ccc(Cl)cc1 |
| 713 | CCC1CCCCN1C(=O)c1cnc2nc(C)ccc2c1Nc1cccc(SC)c1 (configuration not stated) |
| 660 | O=C(Nc1cccc(F)c1)N1C[C@H]2C[C@H](C1)[C@H]1CCCC(=O)N1C2 |
| 871 | COc1ccc(Cl)cc1NC(=O)N1CCC(n2cnc3ccc(F)cc3c2=O)CC1 |
| 645 | Cc1c(C(N)=O)nnn1-c1ccccc1 |

| RP-LC retention time [s] | Structure (SMILES) |
| --- | --- |
| 1030 | CCN1C(=O)c2cc(S(=O)(=O)Nc3ccc(C)cc3F)ccc2Oc2cccnc21 |
| 493 | CCN(CC)CCNC(=S)Nc1ccc2nc(N3CCN(CC)CC3)cc(C)c2c1 |
| 958 | O=C(C1=CN(c2ccc(Oc3ccccc3)cc2)c2cc(F)ccc2S1(=O)=O)N1CCOCC1 |
| 818 | CC1=C(c2ccc(C)cc2)S(=O)(=O)N=C1N1CCCN(C(=O)C2CCC2)CC1 |
| 795 | Cn1cc(-c2cc3n(n2)CCC(=O)N3CCCC(=O)NCc2ccc3c(c2)OCO3)c2ccccc21 |
| 612 | CCC(CC)NC(=O)C1CCN(c2cn[nH]c(=O)c2)C1 (configuration not stated) |
| 1030 | Cc1sc(NC(=O)CSc2nnc3c4ccccc4n(C)c3n2)nc1-c1ccccc1 |
| 683 | CC1CCN(c2ncc(C(=O)O)c(-c3ccncc3)n2)CC1 |
| 1020 | COc1ccc2c(c1)C1CC(C)(O2)N(C)C(=O)C1S(=O)(=O)c1ccc(C)cc1 (configuration not stated) |
| 891 | COc1cccc(NC(=O)C2CCCN(c3ncnc4oc(C)c(C)c34)C2)c1 (configuration not stated) |
| 824 | Cc1nnc2cc(N3CCN(S(=O)(=O)c4ccc(C(C)(C)C)cc4)CC3)cnn12 |
| 620 | CCOC(=O)c1c(C)[nH]c(C(=O)N2CCC(CC(=O)NCc3ccc(N(C)C)cc3)CC2)c1C |
| 772 | CC[C@@H](Nc1c(Nc2cccc(C(=O)N(C)C)c2O)c(=O)c1=O)c1cc(C(C)C)co1 |
| 552 | O=C(NCCN1CCCC1)c1ccc2nc(-c3ccccc3)cn2c1 |
| 901 | CC1CCN(C(=O)CN2C(=O)CCCc3cc(S(=O)(=O)N4CCCCC4)ccc32)CC1 |
| 561 | CCOc1ccc2ncc(C(=O)c3ccc(C)cc3)c(N3CCN(C)CC3)c2c1 |
| 916 | Cc1ccc(S(=O)(=O)N2CCCN(c3ccc(=O)n(-c4ccccc4)n3)CC2)c(C)c1 |
| 1300 | CCOc1ccc(-n2c(N3CCC(C)CC3)nc3cc(C(=O)OC)ccc3c2=O)cc1 |
| 894 | CCc1ccccc1N(C(=O)C1CCCCC1)C1C=CS(=O)(=O)C1 (configuration not stated) |
| 821 | O=C(Nc1cc(C(F)(F)F)ccc1Cl)c1ccc(N2C(=O)CCC2=O)cc1 |
| 666 | O=C(NCCN1CCCCC1)C1CCN(c2nccnc2Sc2ccccc2)CC1 |
| 821 | O=C(NCc1ccccn1)c1scc(-c2ccc(F)cc2)c1-n1cccc1 |

| RP-LC retention time [s] | Structure (SMILES) |
| --- | --- |
| 920 | O=S(=O)(NC1CCCCCC1)c1ccc(-c2nnc(C3CC3)o2)o1 |
| 848 | Cc1ccc(F)c(NS(=O)(=O)c2cc3c(s2)CCN(C(=O)C2CC2)C3)c1 |
| 975 | COC(=O)c1c(C)c(C(=O)C(C)N(C(=O)c2ccccc2Cl)C(C)C)c(C)n1C (configuration not stated) |
| 777 | Cn1ncc(NC(=O)c2cccc(Cl)c2)c(N2CCOCC2)c1=O |
| 838 | CNC(=O)c1c(-c2ccc(F)cc2)oc2cc(N(CCO)S(C)(=O)=O)c(C3CC3)cc12 |
| 654 | CO[C@H]1C(=O)N(C(C)C)[C@H]1C1CCN(C(=O)CCn2cc(C)cn2)CC1 |
| 1110 | Cc1nc(C)c(C(=O)N2CC(Oc3cccc(-c4nc(-c5ccccc5)no4)c3)C2)s1 |
| 648 | COCc1nc(C2CCN(C(=O)c3ccco3)C2)no1 (configuration not stated) |
| 952 | O=c1n(Cc2cccc(F)c2)nc2ccc(S(=O)(=O)N3CCCCC3)cn12 |
| 713 | COc1ccc(NC(=O)N2CCN(Cc3nc4ccc(Cl)cc4o3)CC2)cc1 |
| 580 | O=C(Cn1ccnc1)N1CCCC(OCc2nc(C3CC3)no2)C1 (configuration not stated) |
| 799 | O=S(=O)(NCc1cccnc1-c1ccc(F)cc1)c1ccc(Cl)cc1 |
| 946 | CCCCn1cc(S(=O)(=O)NCc2ccccc2)c2cccnc21 |
| 730 | O=C(CSc1nccn1-c1ccc([N+](=O)[O-])cc1)NC1CCCCC1 |
| 734 | Cc1ccsc1CN1CCc2nc(N3CCN(c4ccc(F)cc4)CC3)ncc2C1 |
| 902 | O=C(CS(=O)Cc1cnn(-c2ccccc2)c1-n1cccc1)N1CCCCCC1 (configuration not stated) |
| 1240 | c1ccc(-c2noc(-c3cc(N4CCOCC4)nc4ccccc34)n2)cc1 |
| 834 | COc1ccc(NC(=O)Cn2cnc3nc(N4CCC(C)CC4)ncc3c2=O)cc1Cl |
| 632 | CC(C)Cn1nc(CNC(=O)CSc2ccncc2)c2ccccc21 |
| 891 | O=C(CSc1nnc2c3cc(-c4ccc(F)cc4)nn3ccn12)Nc1ccc(F)cc1F |
| 624 | O=C(CN1c2ccc(F)cc2-c2ccccc2S1(=O)=O)NCCN1CCOCC1 |
| 959 | CC(C)CCNC(=O)C1(C)CN(S(=O)(=O)c2ccccc2)CC(=O)N1c1ccc(F)cc1 (configuration not stated) |

| RP-LC retention time [s] | Structure (SMILES) |
| --- | --- |
| 703 | Cc1cc(C)cc(Nc2c(C(=O)N3CCCCC3C)cnc3nc(C)ccc23)c1 (configuration not stated) |
| 1030 | COC(=O)c1ccc2c(=O)n(-c3ccccc3)c(N3CCSCC3)nc2c1 |
| 1180 | COc1ccc(NC(=O)Cn2nc(N3CCSCC3)c3ccccc3c2=O)cc1 |
| 663 | CCC(C)NC(=O)CC1CCN(C(=O)c2[nH]c(C)c(C(=O)OC)c2C)CC1 (configuration not stated) |
| 1280 | CCCOc1nc2ccccc2nc1N1CCCC(C(=O)Nc2ccccc2OCC)C1 (configuration not stated) |
| 970 | COc1ccc(-n2c(=O)n(C)c(=O)c3cc(C(=O)Nc4cc(F)cc(F)c4)cnc32)cc1 |
| 680 | COc1ccccc1OCCNC(=O)c1ccc2[nH]c3c(c2c1)CN(C(C)=O)CC3 |
| 918 | COc1ccc(Cn2nc3ccc(S(=O)(=O)N4CCCCC4)cn3c2=O)cc1F |
| 593 | O=C(Nc1ccc(Br)cc1F)N1CCc2nc[nH]c2C1 |
| 850 | Nc1c(C(=O)NCc2ccc3c(c2)OCO3)nsc1C(=O)N1CCN(c2ncccn2)CC1 |
| 756 | CCc1cc(=O)n(CC(=O)Nc2ccc(F)c(F)c2)c(N2CCOCC2)n1 |
| 747 | Cc1nn(C2CCS(=O)(=O)C2)c(C)c1N1CCN(C(=O)c2cc3ccccc3[nH]2)CC1 (configuration not stated) |
| 560 | NS(=O)(=O)c1ccc(CNC(=O)c2coc(NC(=O)c3cnccn3)n2)cc1 |
| 794 | CCc1nnc(-c2ccc3ccn(CC(=O)Nc4ccc5c(c4)OCO5)c3c2)o1 |
| 711 | CN(C)c1ccccc1CN1CCCN(Cc2ccccc2N(C)C)C1c1ccncc1 |
| 632 | CC(NC(=O)CCC(=O)N1CCc2c(c(C(=O)N3CCOCC3)nn2C)C1)c1ccccc1 (configuration not stated) |
| 940 | CC(C)NC(=O)c1ccc(OCC2CCCN(C(=O)C3(c4ccccc4)CC3)C2)cc1 (configuration not stated) |
| 645 | CSc1cccc(NC(=O)C2CCCN(C(=O)c3cc(-c4ccncc4)n[nH]3)C2)c1 (configuration not stated) |
| 662 | Cc1cc(NC(=O)N(C)Cc2nc3cc(C(=O)N(C)C)ccc3n2C)ccc1Br |

| Structure (SMILES) | RP-LC retention time [s] |
| --- | --- |
| COc1ccc2c(c1)C1(CCN(S(=O)(=O)c3ccccc3F)C1)C(=O)N2 (configuration not stated) | 808 |
| Cc1ncc2c(n1)C[C@@H]1CC[C@H]2N1C(=O)c1cccnc1 | 570 |

Reference: the METLIN SMRT retention time set (Domingo-Almenara et al. 2019)
